Earlier results on eleven compounds are cited in patent US11918653B2, “Triglyceride otic formulations and uses thereof” (DOMPÉ FARMACEUTICI S.P.A., priority 2017, dated 2024).

The conditions of data set [1]: after topical application.
Data set [2] deals with mouse collagen-induced arthritis model. The note with it: 30 mg/kg dose.
The target of data set [3] is T1, lymphotoxin (TNF-β) (Homo sapiens, UniProt P01374).
T1 sequence (P01374 35-205): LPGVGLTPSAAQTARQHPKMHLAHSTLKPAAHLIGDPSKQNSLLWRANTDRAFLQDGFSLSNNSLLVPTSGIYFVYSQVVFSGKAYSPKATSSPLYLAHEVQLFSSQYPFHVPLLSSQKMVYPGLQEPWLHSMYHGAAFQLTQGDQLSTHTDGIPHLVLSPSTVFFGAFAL

Data set [4] addresses constitutively activated D136A mutant VP2 receptor (Homo sapiens, UniProt P30518, D136A).
Data set [5] relates to rat arthritis model. The note with it: 30 mg/kg.
In data set [6] the test system is TNF-α production in the LPS-induced human PBMC cells. As to conditions: read-out: IC50 for inhibiting TNF-α production.
For data set [7], the system named is Meniere's disease symptoms. As to conditions: infusion into the scala tympani.
For data set [8], the system named is TNF-α. The note with it: LPS-challenged mice.
The subject of data set [9] is TNF-α production in the LPS-induced MonoMac-6 cells. The note with it: read-out: IC50 for inhibiting TNF-α production.
The conditions of data set [10]: in vivo.
Data set [11] has as its system tinnitus. As to conditions: administered by IV.

On to `C=CC[C@@H]1/C=C(\C)C[C@H](C)C[C@H](OC)[C@H]2O[C@@](O)(C(=O)C(=O)N3CCCC[C@H]3C(=O)O[C@H](/C(C)=C/[C@@H]3CC[C@@H](O)[C@H](OC)C3)[C@H](C)[C@@H](O)CC1=O)[C@H](C)C[C@@H]2OC` (relative stereo) [tacrolimus, [3S-[3R*[E(1S*,3S*,4S*)], 4S*,5R*,8S*,9E,12R*,14R*,15S*,16R*,18S*,19S*,26aR*]]-5,6,8,11,12,13,14,15,16,17,18,19,24,25,26,26a-hexadecahydro-5,19-dihydroxy-3-[2-(4-hydroxy-3-methoxycyclohexyl)-1-methylethenyl]-14,16-dimethoxy-4,10,12,18-tetramethyl-8-(2-propenyl)-15,19-epoxy-3H-pyrido[2,1-39c][1,4]oxaazacyclotricosine-1,7,20,21(4H,23H)-tetrone monohydrate], for which, in data set [1], the bioavailability result is recorded as “less than 0.5%”.
Take `Cc1ccc2nc(NCCN)c3ncc(C)n3c2c1` [BMS-345541]: the severity of disease result in data set [2] is on record as “significantly reduced the severity of disease”.
Turning to Adalimumab, in data set [3], the “binding or inactivation of lymphotoxin (TNF-β)” value was “does not bind or inactivate”. The “patients developing injection site reactions (erythema and/or itching, hemorrhage, pain and/or swelling)” value (systemic administration) is reported as 20%.
Turning to `CCOc1ccc2c(c1)C1(CCC(OCCN3CCOCC3)CC1)C(=O)N2S(=O)(=O)c1ccc(C(=O)NC(C)(C)C)cc1OC.O=C(O)/C=C/C(=O)O` (centres unmarked) [SR-1211463, 1-(4-(N-tert-butylcarbamoyl)-2-methoxybenzenesulfonyl)-5-ethoxy-3-spiro-(4-(2-morpholinoethoxy)cyclohexane)indol-2-one fumarate], in [4], the “behaviour at D136A mutant VP2 receptor” value was “inverse agonist”.
As to `COc1cccc2nc(-c3cccs3)nc(NN3C(=O)C=C(C)C3=O)c12` [SPC-839], the paw edema result in [5] is listed as “reduces paw edema”.
As to `CC[C@H](C)[C@H](NC(=O)[C@H](CC(C)C)[C@H](C(C)C)N(O)C=O)C(=O)Nc1ccccn1` [GW3333], the IC50 in data set [6] was 970 nM.
For `Cc1ccccc1C(=O)Nc1ccc(C(=O)N2CCCC(N(C)C)c3ccccc32)cc1.Cl` (racemic) [OPC-31260, (±)-5-dimethylamino-1-(4-[2-methylbenzoylamino]benzoyl)-2,3,4,5-tetrahydro-1H-benzazepin hydrochloride], the “behaviour at D136A mutant VP2 receptor” value in [4] is listed as “inverse agonist”. Further, the “Meniere's disease symptoms” value in [7] is recorded as “marked reduction of Meniere's disease symptoms”.
With `O=C(Nc1cc(Cl)cc2c1[nH]c1cnccc12)c1cccnc1` [PS-1145], the “production of TNF-α” value in data set [8] is “reduces the production of TNF-α”.
Regarding `CC(C)C[C@@H](C(=O)N[C@@H](CCCN/C(N)=N/[N+](=O)[O-])C(=O)Nc1nccs1)[C@H](C(C)C)N(O)C=O` [Nitroarginine analog A], the IC50 in data set [9] is 34 nM. Besides, the oral activity result in [10] is on record as “lacks oral activity”.
On to etanercept, for which, for the setting “systemically treated”, the “patients experiencing injection site reactions” value is listed as “over one-third of patients”.
For the compound `CCN(CC)CC(=O)Nc1c(C)cccc1C` [Lidocaine], in data set [11], the “sufferers in whom noise associated with tinnitus is reduced or eliminated” value was 60-80%.

As a reminder, the IC50 is the concentration that inhibits the measured activity by half.
